One block for each compound: values may come before it. Where a SMILES comes first, the peptide text is derived from it. [ ]: non-standard residue; d: D form. The star is where a group is joined. 5TAMRA = CN(C)c1ccc2c(c1)Oc1cc(N(C)C)ccc1C21OC(=O)c2cc(C(=O)*)ccc21
What was measured:
[1] = Stability of TMR-labeled peptides in mouse plasma; assay type: in vitro ADME; conditions: 37°C; for susceptibility to mouse plasma proteases (in words): incubated with fresh mouse plasma, HPLC
Protocol: Mouse blood was collected in serum-separation tubes containing heparin sodium and immediately centrifuged at 10,000 rpm for 10 min. Fresh mouse plasma was then removed and stored for further analysis. Then, 200 µg of TMR-RIF7 and TMR-IF7 was dissolved in 10 µl DMSO, added to 1 ml of the fresh plasma, and incubated at 37°C. A 50 µl aliquot was withdrawn from the incubation mixture at the time indicated, added to 450 µl acetonitrile: water (50∶50) containing 0.1% TFA, centrifuged at 5,000 rpm for 10 min to remove Insoluble material, and then the supernatant was analyzed by HPLC as described previously in §2.2. Elution was monitored (excitation λ = 543 nm; emission λ = 570 nm). The relative amount of TMR-RIF7 and TMR-IF7 that remained in the mouse plasma […].

A549 cells = experiment: Cell binding after pre-incubation in complete medium (10% FBS); assay type: cell-based, human; conditions: 10 min; for fluorescent intensity after incubation of peptide with complete medium prior to cells: complete medium containing 10% FBS, 37°C, then A549 cells, IF7 p<0.001, RIF7 p<0.01
Protocol: A549 cells were seeded (5×10^3 cells/well) in 96-well plates (Corning Coaster, Tokyo, Japan) and incubated for 12 h. Cells were incubated with serum free medium (special Dulbecco's modified Eagle medium supplemented with 100 U/mL penicillin, […] streptomycin) containing TMR-RIF7, TMR-IF7, or TMR-RQ7 (TMR conjugated to reverse IF7: sequence RQWLLFI, composed of L-amino acids) at the concentration of 10 µg/ml. In addition, to verify the stability of modified peptides, TMR-IF7 and TMR-RIF7 were incubated with complete medium (special Dulbecco's modified Eagle medium supplemented with 10% heat-inactivated FBS, 100 U/mL penicillin, […] streptomycin) for 10 min at 37°C in advance of serum free medium. The solution was removed and cells were washed three times with ice-cold PBS (pH 7.4) and then visualized under a fluorescent microscope (Leica DMI 4000B, Germany).
(§1) For direct competition studies, non-labeled IF7 or RIF7 (10 µg/ml) was added to each well and incubated for 30 min. TMR-IF7 or TMR-RIF7 (10 µg/ml) were then added and incubated at 37°C for 30 min. The solution was removed and the cells were washed three times with ice-cold PBS (pH 7.4) and then visualized under a fluorescent microscope (Leica DMI 4000B, Germany). The fluorescent signal intensity of each well was quantified using an F-7000 FL spectrophotometer.

Anxa1 [2] = target: T1, Anxa1 (Mus musculus, UniProt P10107); experiment: In vivo inhibition assay with anti-Anxa1 antibody in pulmonary tumor-bearing mice; conditions: 20 µg rabbit IgG 15 min prior to peptide
T1 construct: IF7 or RIF7 targets tumors through Anxa1 expressed on endothelial cell surfaces; from tissue; host or cells: pulmonary tumour vasculature of tumour-bearing mice (in vivo)
T1 sequence (P10107 1-346): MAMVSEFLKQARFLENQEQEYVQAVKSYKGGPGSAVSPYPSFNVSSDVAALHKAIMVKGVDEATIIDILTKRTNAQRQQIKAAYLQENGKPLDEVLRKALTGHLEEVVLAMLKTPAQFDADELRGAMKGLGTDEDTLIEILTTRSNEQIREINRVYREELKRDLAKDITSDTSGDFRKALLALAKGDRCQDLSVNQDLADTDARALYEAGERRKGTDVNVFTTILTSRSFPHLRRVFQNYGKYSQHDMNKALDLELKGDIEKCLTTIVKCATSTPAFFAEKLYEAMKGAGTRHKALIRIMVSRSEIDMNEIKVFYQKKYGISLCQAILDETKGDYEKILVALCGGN
Protocol: (§2) Ex vivo real-time fluorescence imaging analysis was used to evaluate the tumor targeting activity of TMR-RIF7. One week after inoculation, TMR-IF7 or TMR-RIF7 (200 µl, 0.5 mg/ml in 5% glucose solution) was injected through the tail vein of mice bearing pulmonary tumors. The mice were then sacrificed and perfused intracardially with normal saline to compare tissue and tumor distribution of TMR-RIF7. Tumor-bearing lungs and other major organs, including hearts, livers, spleens and kidneys were removed, washed with saline, and imaged using a Cambridge Research & Instrumentation (CRi) in vivo imaging system (CRi, MA, USA). When subcutaneous KBv tumors were grown to a palpable size (about 8–10 mm diameter), the same process was carried out to evaluate tissue and tumor distribution of TMR-RIF7 in subcutaneous tumor-bearing nude mice. Next, 20 µg of each rabbit anti-Anxa1 antibody (N-19) or rabbit IgG antibody was injected 15 min prior to TMR-IF7 or TMR-RIF7 injection for inhibition assays in pulmonary tumor-bearing mice. Then, resulting images (spectral cube, containing a spectrum at every pixel) were loaded into Maestro™ 2.10 software and analyzed.

Anxa1 [3] = target: T2, Anxa1 (Homo sapiens, UniProt P04083); experiment: Direct competition study with non-labeled peptide; assay type: cell-based; conditions: A549 cells
T2 construct: endogenous in cells; host or cells: A549 cells
T2 sequence (P04083 1-346): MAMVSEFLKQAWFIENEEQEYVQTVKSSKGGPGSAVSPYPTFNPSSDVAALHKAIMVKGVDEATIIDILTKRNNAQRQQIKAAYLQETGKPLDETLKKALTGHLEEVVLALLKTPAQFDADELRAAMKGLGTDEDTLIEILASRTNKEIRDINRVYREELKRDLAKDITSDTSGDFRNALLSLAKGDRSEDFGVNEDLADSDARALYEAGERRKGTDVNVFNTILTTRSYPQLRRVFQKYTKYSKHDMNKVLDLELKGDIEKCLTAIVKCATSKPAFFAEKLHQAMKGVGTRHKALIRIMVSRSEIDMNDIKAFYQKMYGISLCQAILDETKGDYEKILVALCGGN
Protocol: as §1

tumor = conditions: mice; cited from earlier work
Description: Hatakeyama's laboratory used peptide-displaying phage technology to generate a carbohydrate mimetic peptide with the consensus sequence IFLLWQR, which was designated IF7 [14]. IF7 has a special affinity for the tumor vasculature and functions as an efficient anticancer drug delivery vehicle, slowing tumor growth. Experiments confirmed that IF7 specifically binds to a 15-kDa fragment of annexin1 (Anxa1). Anxa1 is a member of the large annexin family of cytosolic proteins with calcium-dependent associations with cell membranes.

[4] = Systemic distribution in dissected organs, ex vivo imaging; set-up: species or system mouse; conditions: for organ distribution of TMR-labeled peptide: major organs collected at 30 min and 4 h after i.v. injection
Protocol: as §2

lung melanoma (B16-F10) = assay type: in vivo, mouse
Protocol: as §2, with “B16-F10 cells (7.5×10^5 cells suspended in 250 µl PBS) were injected intravenously into BALB/c mice to establish a pulmonary metastatic melanoma model. Specifically, KBv cells (5×10^6cells suspended in […] cell culture medium) were inoculated subcutaneously into the right hind legs of nude mice to produce a subcutaneous KBv xenograft model. Ex” for “Ex”

Anxa1 [5] = target: T2, Anxa1; experiment: Inhibition assay of cell binding with anti-Anxa1 antibody; assay type: cell-based; conditions: A549 cells; for influence of normal rabbit IgG on binding capacity to cells: normal rabbit IgG 4 µg per well 30 min prior to peptide
Protocol: For inhibition assays, anti-Anxa1 antibody or control normal rabbit IgG (4 µg each) was added to each well and incubated for 30 min. TMR-IF7 or TMR-RIF7 (10 µg/ml) were then added and incubated at 37°C for 30 min. The solution was removed and cells were washed three times with ice-cold PBS (pH 7.4) and then visualized under a fluorescent microscope (Leica DMI 4000B, Germany).
as §1

[6] = test system: subcutaneous KBv xenografts; experiment: Ex vivo fluorescence imaging, subcutaneous KBv xenograft model; assay type: in vivo; conditions: nude mice, both 30 min and 4 h after i.v. injection
Protocol: as §2, with “B16-F10 cells (7.5×10^5 cells suspended in 250 µl PBS) were injected intravenously into BALB/c mice to establish a pulmonary metastatic melanoma model. Specifically, KBv cells (5×10^6cells suspended in […] cell culture medium) were inoculated subcutaneously into the right hind legs of nude mice to produce a subcutaneous KBv xenograft model. Ex” for “Ex”, “Next, 20 µg of each rabbit anti-Anxa1 antibody (N-19) or rabbit IgG antibody was injected 15 min prior to TMR-IF7 or TMR-RIF7 injection for inhibition assays in pulmonary tumor-bearing mice.” left out

[7] = TMR-labeled peptide 10 µg/ml, 37°C, 30 min, F-7000 FL spectrophotometer, mean ± SD, n = 3

Compound: CC[C@H](C)[C@H](NC(=O)c1ccc2c(c1)C(=O)OC21c2ccc(N(C)C)cc2Oc2cc(N(C)C)ccc21)C(=O)N[C@@H](Cc1ccccc1)C(=O)N[C@@H](CC(C)C)C(=O)N[C@@H](CC(C)C)C(=O)N[C@@H](Cc1c[nH]c2ccccc12)C(=O)N[C@@H](CCC(N)=O)C(=O)N[C@@H](CCCNC(=N)N)C(=O)O [TMR-IF7] (5TAMRA-IFLLWQR-OH)
metabolised at 0.5 h, 198 µg/mL ([1]; fresh heparinised mouse plasma, fresh heparin mouse plasma, 200 µg peptide in 10 µl DMSO per 1 ml plasma, within 30 min, HPLC with fluorescence detection (ex 543 nm, em 570 nm), mean of at least three experiments, read-out: peptide degraded in mouse plasma): > 80% | susceptibility to mouse plasma proteases (in words) [1]: rapidly degraded

Compound: CC[C@@H](C)[C@@H](NC(=O)[C@@H](Cc1ccccc1)NC(=O)[C@@H](CC(C)C)NC(=O)[C@@H](CC(C)C)NC(=O)[C@@H](Cc1c[nH]c2ccccc12)NC(=O)[C@@H](CCC(N)=O)NC(=O)[C@@H](CCCNC(=N)N)NC(=O)c1ccc2c(c1)C(=O)OC21c2ccc(N(C)C)cc2Oc2cc(N(C)C)ccc21)C(=O)O [TMR-RIF7] (5TAMRA-[dR][dQ][dW][dL][dL][dF][dI]-OH)
resistance to protease in complete medium (qualitative imaging) (A549 cells; complete medium with 10% FBS, 37°C prior to incubation with A549 cells): more resistant to protease in complete medium than TMR-IF7 | remaining at 6 h, 198 µg/mL ([1]; fresh heparinised mouse plasma, fresh heparin mouse plasma, 200 µg peptide in 10 µl DMSO per 1 ml plasma, within 6 h, HPLC with fluorescence detection (ex 543 nm, em 570 nm), mean of at least three experiments, read-out: peptide remaining intact in mouse plasma): ~70% | susceptibility to mouse plasma proteases (in words) [1]: did not change significantly

fluorescent intensity after incubation of peptide with complete medium prior to cells (A549 cells): decreased significantly | fluorescent intensity, cells treated with peptide only (competition assay) (Anxa1 [3]; [7]): 20.31±1.78 | fluorescent intensity, cells pre-incubated with non-labeled competitor (Anxa1 [3]; non-labeled peptide 10 µg/ml 30 min, then TMR-labeled peptide 10 µg/ml, 37°C, 30 min, mean ± SD, n = 3): 4.26±1.96 | intensity of fluorescence, cells treated with peptide only (Anxa1 [5]; [7]): 19.32±0.89 | intensity of fluorescence, cells incubated with anti-Anxa1 antibody prior to peptide (Anxa1 [5]; anti-Anxa1 antibody 4 µg per well 30 min, then TMR-labeled peptide 10 µg/ml, 37°C, 30 min, mean ± SD, n = 3): 5.26±1.97 | influence of normal rabbit IgG on binding capacity to cells (Anxa1 [5]): little influence
Compound: IFLLWQR [IF7, parent peptide]
effect of normal rabbit IgG injected prior to peptide (Anxa1 [2]): did not alter targeted distribution in the lung | time for which the tumor signal remained high (tumor): 40 min | time to detection in the tumor after injection (tumor): ≤ 1 min | time to plateau in the tumor (tumor): 9 min | organ distribution of TMR-labeled peptide [4]: distributed mainly in liver, kidney and tumor tissue | mean fluorescent intensity in the lung tumor region (lung melanoma (B16-F10); 12 h post intravenous injection, mean ± SD, n = 3): hardly detectable

fluorescent intensity after incubation of peptide with complete medium prior to cells (A549 cells): decreased significantly | binding to Anxa1 inhibited by non-labeled peptide (Anxa1 [3]; non-labeled peptide 10 µg/ml 30 min prior to TMR-labeled peptide 10 µg/ml): ~67% | binding to Anxa1 inhibited by anti-Anxa1 antibody (Anxa1 [5]; anti-Anxa1 antibody 4 µg per well 30 min prior to TMR-labeled peptide 10 µg/ml): ~70% | influence of normal rabbit IgG on binding capacity to cells (Anxa1 [5]): little influence
Compound: RQWLLFI [RIF7]
effect of normal rabbit IgG injected prior to peptide (Anxa1 [2]): did not alter targeted distribution in the lung | fluorescent signals in organs compared with the other peptide ([4]; 30 min and 4 h after i.v. injection): stronger fluorescent signals at both time points | organ distribution of TMR-labeled peptide [4]: distributed mainly in liver, kidney and tumor tissue | signal intensity in lung tumor relative to IF7 (lung melanoma (B16-F10); after 4 h, mean fluorescent intensities in lung tumor region, n = 3): ~2.3 fold | fluorescent signal in lung melanoma compared with the IF7 group (lung melanoma (B16-F10); all survey points (30 min, 4, 8, 12 h)): stronger fluorescent signal | fluorescent intensity in KBv tumors compared to IF7-treated mice [6]: greater fluorescent intensity

Compound: RQWLLFI [RQ7, control peptide]
signals in the lung ([4]; different time points after i.v. injection, control peptide): remained at background levels
